Measured values from patent US20220168430A1, “THERAPEUTIC METHODS FOR TREATING HEPATITIS B” (priority 2019, published 2022).
pEC50: −log10 of the molar value. Like-named read-outs stand apart in the source and are kept apart here.

System: HBV rcDNA
Test: Dual agent combination in HepDE19 cells, rcDNA by Quantigene 2.0 bDNA assay (Examples 5-8)
Type: cell-based, HBV; HepDE19 (HepG2 human hepatocarcinoma derived)
Settings: Hepatitis B virus; for inhibition at 0.002 µM: TAF 0.002 μM alone; for inhibition at 0.007 µM: TAF 0.007 μM alone; for inhibition at 0.02 µM: TAF 0.020 μM alone; for inhibition at 0.06 µM: TAF 0.060 μM alone; for inhibition at 0.001 µM: TAF 0.001 μM alone; for inhibition at 0.003 µM: TAF 0.003 μM alone; for inhibition at 0.005 µM: TAF 0.005 μM alone; for inhibition at 0.01 µM: TAF 0.010 μM alone; for inhibition at 0.04 µM: TAF 0.040 μM alone; for inhibition at 0.08 µM: TAF 0.080 μM alone; for inhibition at 0.16 µM: TAF 0.160 μM alone; for inhibition at 0.32 µM: TAF 0.320 μM alone
Experimental: In vitro dual agent combination studies were conducted using the method of Prichard and Shipman 1990 (Prichard M N, Shipman C, Jr. 1990. Antiviral Res 14:181-205). The HepDE19 cell culture system is a HepG2 (human hepatocarcinoma) derived cell line that supports HBV DNA replication and cccDNA formation under control the control of a CMV Tet-off promoter system (Guo et al. 2007. J Virol 81:12472-84). HepDE19 (50,000 cells/well) were plated in 96 well collagen-coated tissue-culture treated microtiter plates in DMEM/F12 medium supplemented with 10% fetal bovine serum+1% penicillin-streptomycin with tetracycline (1 μg/mL) and incubated in a humidified incubator at 37° C. and 5% CO2 overnight. Next day, the cells were switched to fresh medium without tetracycline and incubated for 4 hrs at 37° C. and 5% CO2. The cells were switched to fresh medium and treated with inhibitor A and inhibitor B, at concentration range spanning their respective EC50 values. […] The two inhibitors were tested both singly as well as in combinations in a checkerboard fashion such that each concentration of inhibitor A was combined with each concentration of inhibitor B to determine their combination effects on inhibition of rcDNA production. There were four replicates of each concentration combination in each experiment. The plates were incubated for 7 days in a humidified incubator at 37° C. and 5% CO2. The level of rcDNA present in the wells was measured using a Quantigene 2.0 bDNA assay kit (Affymetrix, Santa Clara, Calif.) with HBV specific custom probe set (genotype D ayw) and according to the manufacturer's instructions and read using a luminescence plate reader and the relative luminescence units (RLU) data generated from each well was calculated as % inhibition of the untreated control wells and analyzed using the MacSynergy II program to determine whether the combinations were synergistic, additive or antagonistic using the interpretive guidelines established by Prichard and Shipman (Prichard M N, Shipman C, Jr. 1990. […] Each experiment was repeated at least three times and the averages and standard deviations of individual determinations was calculated to derive the conclusion. Concurrently, in each experiment, the effect of inhibitor combinations on cell viability was assessed using replicate plates in triplicates that were used to determine the ATP content as a measure of cell viability using the Cell-Titer Glo reagent (Promega, Madison, Wis.) as per the manufacturer's instructions.

[1] = HepDE19, read-out: AVERAGE % INHIBITION, Expt 1
[2] = HepDE19, read-out: AVERAGE % INHIBITION, Expt 2
[3] = HepDE19, read-out: AVERAGE % INHIBITION, Expt 3
[4] = HepDE19, read-out: AVERAGE % INHIBITION, Expt 4

`CC(C)OC(=O)[C@H](C)N[P@](=O)(CO[C@H](C)Cn1cnc2c(N)ncnc21)Oc1ccccc1` [TAF, tenofovir alafenamide] showed an inhibition at 0.002 µM [1] of -55.3%, an inhibition at 0.007 µM [1] of -30.2% and an inhibition at 0.02 µM [1] of -1.17%. It also gave an inhibition at 0.06 µM [1] of 67%, an inhibition at 0.002 µM [2] of 9.84% and an inhibition at 0.007 µM [2] of 24.9%. It also gave an inhibition at 0.02 µM [2] of 65.5%, an inhibition at 0.06 µM [2] of 89.4% and an inhibition at 0.001 µM [3] of -134%. It also gave an inhibition at 0.003 µM [3] of -49.2%, an inhibition at 0.005 µM [3] of -42.3% and an inhibition at 0.01 µM [3] of -48.4%. The inhibition at 0.02 µM [3] was -34.3%, the inhibition at 0.04 µM [3] was 37% and the inhibition at 0.08 µM [3] was 57.1%. It also gave an inhibition at 0.16 µM [3] of 88%, an inhibition at 0.32 µM [3] of 94.8% and an inhibition at 0.001 µM [4] of 9.66%. For the same compound, the inhibition at 0.003 µM [4] was -0.11%, the inhibition at 0.005 µM [4] was -1.36% and the inhibition at 0.01 µM [4] was 0.94%. For the same compound, the inhibition at 0.02 µM [4] was 36.6%, the inhibition at 0.04 µM [4] was 61.8% and the inhibition at 0.08 µM [4] was 57.2%. For the same compound, the inhibition at 0.16 µM [4] was 83.6%, the inhibition at 0.32 µM [4] was 95.9% and the pEC50 (HepDE19, read-out: Avg. Inhibitor B EC50) was 7.36.
